Experimental data taken from PMC8745342, “In Vitro and In Silico Kinetic Studies of Patented 1,7-diEthyl and 1,7-diMethyl Aminoalkanol Derivatives as New Inhibitors of Acetylcholinesterase” (International Journal of Molecular Sciences, 2021).

Experiments:
[1] = target: T1, Acetylcholinesterase human (AChE) (Homo sapiens, UniProt P22303); experiment: AChE inhibition kinetics, Ellman's method combined with capillary electrophoresis; assay type: biochemical; settings: for type of AChE inhibition: from Lineweaver-Burk plots, Km and Vmax; for IC50: from activity (%) versus inhibitor concentration plots; for Tilt Angle of Lineweaver-Burk line: acetylthiocholine 0.36–46.00 mM, n = 6; for amount of 4,4-dithio-bis-acid nitrobenzoic (DBAN) product in the presence of inhibitor: 0.66 mM without inhibitors
T1 construct: purchased Sigma-Aldrich (Poznań, Poland)
From the text: In this work, we used the combined Ellman’s method with the capillary electrophoresis method developed by us for the determination of 4,4-dithio-bis-acid nitrobenzoic (DBAN) (main enzyme reaction product) in the presence of acetylthiocholine (ACth), 5-thio-2-nitrobenzoic acid (NTB), 5,5′-dithio-bis-2-nitrobenzoic acid (DTNB), acetylcholinesterase (AChE) and inhibitors (I), (II), (III) and (IV) of acetylcholinesterase. For the development of this method, we optimized the buffer pH, separating background electrolyte (BGE) concentration, wavelength, temperature, and voltage. […] All these separation systems were tested to achieve the best separation parameters, resolution, and analysis time for all components in the reaction mixture. […] Separation was carried out at 15 kV. Each sample was added to the capillary under hydrodynamic injection.
The samples were injected under 5 psi pressure for 3 s. The experiments were performed under constant current conditions (85 μA). […] Before the assay, the capillary was conditioned with 0.1 M NaOH for 10 min at 10 psi and with H2O for 10 min at 10 psi. Then, it was electro conditioned with the running buffer for 20 min at +10 kV and pressure-conditioned with the running buffer for 10 min at 10 psi. Before each injection, the capillary was washed with 1 M NaOH for 2 min, then with H2O for 2 min, and finally with BGE for 2 min. At the end of each working day, the capillary was rinsed for 10 min with 0.1 M NaOH, 10 min with BGE, and 10 min with deionized water at 15 psi. Then, the capillary was exposed to air for 10 min at 20 psi and left empty.
Sample mixtures containing 4,4-dithio-bis-acid nitrobenzoic (DBAN) (main enzyme reaction product) in the presence of acetylthiocholine (ACth), 5-thio-2-nitrobenzoic acid (NTB), 5,5′-dithio-bis-2-nitrobenzoic acid (DTNB), acetylcholinesterase (AChE) and inhibitors (I), (II), (III) and (IV) were introduced automatically by pressure injection (with 2 psi pressure for 5 s on the sample solution). At the day’s end, vials with anode and cathode buffer were emptied and running buffer was filled again at the start of the next day before the analysis.
Acetylcholinesterase activity was determined according to the method by Ellman et al. and according to the procedure described by Rosilene R et al. but slightly modified. […] The tubes containing solutions were preincubated for 2 min at 25 °C. Then, 0.1 mL […] AChE was introduced into tubes 1–9, at an interval of 1 min. All 10 samples were incubated for 3 min at 25 °C. After incubation, the analytical samples were introduced into the capillary.
The inhibition constants (Ki) were calculated from the plotted Lineweaver–Burk curves for the four concentrations of the inhibitors (I), (II), (III) and (IV). The method was based on two steps (Figure 8).

[2] = tested on: AChE; settings: model AChE inhibitors; read-out: IC50 (inhibition potency); cited from earlier work
[3] = inhibitor 0.08 mM, acetylthiocholine 0.36 mM
[4] = inhibitor 0.08 mM, acetylthiocholine 0.72 mM
[5] = inhibitor 0.08 mM, acetylthiocholine 1.44 mM
[6] = inhibitor 0.08 mM, acetylthiocholine 2.88 mM
[7] = inhibitor 0.08 mM, acetylthiocholine 5.75 mM
[8] = inhibitor 0.08 mM, acetylthiocholine 11.50 mM
[9] = inhibitor 0.08 mM, acetylthiocholine 23.00 mM
[10] = inhibitor 0.08 mM, acetylthiocholine 34.50 mM
[11] = inhibitor 0.08 mM, acetylthiocholine 46.00 mM

T1 sequence (P22303 32-614): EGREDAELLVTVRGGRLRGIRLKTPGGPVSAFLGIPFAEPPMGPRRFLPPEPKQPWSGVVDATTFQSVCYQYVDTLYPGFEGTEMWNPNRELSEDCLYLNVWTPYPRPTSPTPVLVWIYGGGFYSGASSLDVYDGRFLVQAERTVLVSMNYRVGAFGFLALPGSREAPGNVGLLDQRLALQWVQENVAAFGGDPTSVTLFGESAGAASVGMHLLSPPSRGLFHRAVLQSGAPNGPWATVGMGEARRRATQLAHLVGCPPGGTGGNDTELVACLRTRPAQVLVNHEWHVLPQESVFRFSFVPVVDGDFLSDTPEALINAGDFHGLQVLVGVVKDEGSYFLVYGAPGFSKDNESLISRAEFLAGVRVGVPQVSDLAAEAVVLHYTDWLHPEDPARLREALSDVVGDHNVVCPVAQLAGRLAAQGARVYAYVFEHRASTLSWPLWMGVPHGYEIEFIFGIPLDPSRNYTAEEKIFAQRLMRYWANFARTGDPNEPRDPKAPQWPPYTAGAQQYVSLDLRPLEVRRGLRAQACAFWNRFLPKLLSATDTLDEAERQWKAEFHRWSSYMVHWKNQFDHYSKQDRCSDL

Row | Structure (SMILES) | type of AChE inhibition [1] | IC50 [1] [µM] | Vmax ([1]; inhibitor 0.01 mM) [mM/min] | Tilt Angle of Lineweaver-Burk line ([1]; inhibitor 0.01 mM) [°] | Vmax ([1]; inhibitor 0.02 mM) [mM/min] | Vmax ([1]; inhibitor 0.04 mM) [mM/min] | Tilt Angle of Lineweaver-Burk line ([1]; inhibitor 0.04 mM) [°] | Vmax ([1]; inhibitor 0.06 mM) [mM/min] | Tilt Angle of Lineweaver-Burk line ([1]; inhibitor 0.06 mM) [°] | Vmax ([1]; inhibitor 0.08 mM) [mM/min] | 1/Vo, mean [1, 3] [min/mM] | Peak area of product (4,4-dithio-bis-acid nitrobenzoic), mean [1, 3] | V0 (reaction speed), mean [1, 3] [mM/min] | 1/Vo, mean [1, 4] [min/mM] | Peak area of product (4,4-dithio-bis-acid nitrobenzoic), mean [1, 4] | V0 (reaction speed), mean [1, 4] [mM/min] | 1/Vo, mean [1, 5] [min/mM] | Peak area of product (4,4-dithio-bis-acid nitrobenzoic), mean [1, 5] | V0 (reaction speed), mean [1, 5] [mM/min] | amount of 4,4-dithio-bis-acid nitrobenzoic (DBAN) product in the presence of inhibitor [1, 5] [mM] | further results
1 | CC(C)NCC(O)CN1C(=O)C2C(C1=O)C1(C)C(=O)C2(C)C(c2ccccc2)=C1c1ccccc1 (centres unmarked) [Compound (III)] | competitive | 33 ± 1 | 0.63 ± 0.01 | 60.01 ± 0.03 | 0.63 ± 0.02 | 0.64 ± 0.03 | 67.38 ± 0.04 | 0.64 ± 0.03 | 70.42 ± 0.02 | 0.63 ± 0.02 | 10.1 | 39497 | 0.10 | 5.70 | 72431 | 0.18 | 3.55 | 102230 | 0.28 | 0.41 | Tilt Angle of Lineweaver-Burk line ([1]; inhibitor 0.02 mM): 62.28 ± 0.03 °; 1/Vo, mean [1, 6]: 2.40 min/mM; Peak area of product (4,4-dithio-bis-acid nitrobenzoic), mean [1, 6]: 135840; V0 (reaction speed), mean [1, 6]: 0.42 mM/min; 1/Vo, mean [1, 7]: 2.05 min/mM; Peak area of product (4,4-dithio-bis-acid nitrobenzoic), mean [1, 7]: 164404; V0 (reaction speed), mean [1, 7]: 0.49 mM/min; 1/Vo, mean [1, 8]: 1.80 min/mM; Peak area of product (4,4-dithio-bis-acid nitrobenzoic), mean [1, 8]: 183545; V0 (reaction speed), mean [1, 8]: 0.56 mM/min; 1/Vo, mean [1, 9]: 1.70 min/mM; Peak area of product (4,4-dithio-bis-acid nitrobenzoic), mean [1, 9]: 196660; V0 (reaction speed), mean [1, 9]: 0.59 mM/min; 1/Vo, mean [1, 10]: 1.55 min/mM; Peak area of product (4,4-dithio-bis-acid nitrobenzoic), mean [1, 10]: 198790; V0 (reaction speed), mean [1, 10]: 0.65 mM/min; 1/Vo, mean [1, 11]: 1.50 min/mM; Peak area of product (4,4-dithio-bis-acid nitrobenzoic), mean [1, 11]: 199716; V0 (reaction speed), mean [1, 11]: 0.64 mM/min; Tilt Angle of Lineweaver-Burk line ([1]; inhibitor 0.08 mM): 71.50 ± 0.03 °
2 | CCC12C(=O)C(CC)(C(c3ccccc3)=C1c1ccccc1)C1C(=O)N(CC(O)CNC(C)C)C(=O)C12 (centres unmarked) [Compound (I)] | competitive | 37 ± 1 | 0.63 ± 0.02 | 59.52 ± 0.04 | 0.62 ± 0.03 | 0.64 ± 0.01 | 65.42 ± 0.05 | 0.65 ± 0.01 | 69.66 ± 0.05 | 0.65 ± 0.01 | 9.30 | 49766 | 0.11 | 5.46 | 91263 | 0.18 | 3.55 | 128810 | 0.28 | 0.52 | 1/Vo, mean [1, 6]: 2.30 min/mM; Peak area of product (4,4-dithio-bis-acid nitrobenzoic), mean [1, 6]: 171159; V0 (reaction speed), mean [1, 6]: 0.43 mM/min; 1/Vo, mean [1, 7]: 2.05 min/mM; Peak area of product (4,4-dithio-bis-acid nitrobenzoic), mean [1, 7]: 207149; V0 (reaction speed), mean [1, 7]: 0.49 mM/min; 1/Vo, mean [1, 8]: 1.80 min/mM; Peak area of product (4,4-dithio-bis-acid nitrobenzoic), mean [1, 8]: 231267; V0 (reaction speed), mean [1, 8]: 0.56 mM/min; 1/Vo, mean [1, 9]: 1.70 min/mM; Peak area of product (4,4-dithio-bis-acid nitrobenzoic), mean [1, 9]: 247792; V0 (reaction speed), mean [1, 9]: 0.59 mM/min; 1/Vo, mean [1, 10]: 1.55 min/mM; Peak area of product (4,4-dithio-bis-acid nitrobenzoic), mean [1, 10]: 250475; V0 (reaction speed), mean [1, 10]: 0.65 mM/min; 1/Vo, mean [1, 11]: 1.50 min/mM; Peak area of product (4,4-dithio-bis-acid nitrobenzoic), mean [1, 11]: 251643; V0 (reaction speed), mean [1, 11]: 0.67 mM/min; Tilt Angle of Lineweaver-Burk line ([1]; inhibitor 0.08 mM): 70.32 ± 0.03 °
